Assay results published in US20250002450A1, “CATIONIC STEROID COMPOUNDS, METHOD OF OBTAINING THEREOF, FORMULATIONS COMPRISING THEREOF AND THEIR USES” (UNIVERSIDADE DO PORTO, priority 2021, published 2025).
Converted amounts (≈) assume the structure as drawn.

Legend:
E. coli SA/2 (ESBL) = test: Antibacterial MIC/MBC (broth microdilution); type: cell-based, Escherichia coli; conditions: Escherichia coli
How it was run: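 Two-fold serial dilutions in Mueller-Hinton broth 2 (0.062-64 μg/mL), inoculum about 5×10^5 CFU/mL, 20 h at 37 degrees C. MIC was the lowest concentration preventing visible growth; MBC was the lowest concentration killing 99.9% of the inoculum after plating wells without growth on MH agar.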

P. aeruginosa 33b (PDR) = test: Antibacterial MIC/MBC (broth microdilution); type: cell-based, Pseudomonas aeruginosa; conditions: Pseudomonas aeruginosa, P. aeruginosa 33b (PDR); for MBC: read-out: MBC; for MIC: read-out: MIC
Source text: (§1) Twelve reference bacterial strains and nine MDR clinically relevant bacterial strains were used in this study. Gram-negative bacteria comprised reference strains E. coli ATCC 25922, K. pneumoniae ATCC 13883, Salmonella enterica serovar Typhimurium CECT 443, P. aeruginosa ATCC 27853, A. baumannii ATCC 19606, C. jejuni ATCC 33560 (ATCC—American Type Culture Collection; CECT—Colección Espanola de Cultivos Tipo); clinical isolates E. coli SA/2, an extended-spectrum β-lactamase (ESBL)-producing strain and P. aeruginosa 33b, a pan-drug-resistant isolate; and animal isolates C. jejuni P5/4, a ciprofloxacin-resistant strain, C. jejuni 4432, C. jejuni 4433, C. jejuni 4448, and E. coli 2252, a COL-resistant strain [42]. Gram-positive strains included S. aureus ATCC 29213, E. faecalis ATCC 29212, S. pyogenes ATCC 19615, and environmental isolates methicillin-resistant S. aureus (MRSA) 66/1 [43], and VAN-resistant enterococci (VRE) E. faecalis B3/101 [44]. Gram-negative fish pathogens Yersinia ruckeri ATCC 29473, Listonella anguillarum ATCC 1924, and Tenacibaculum maritimum ATCC 43397 were also included.
(§2) Strains were kept in Trypto-Casein Soy agar (TSA—Biokar Diagnostics, Allone, Beauvais, France) slants and, before each assay, were sub-cultured in Mueller-Hinton agar (MHA—Biokar Diagnostics, Allone, Beauvais, France). Y. ruckeri ATCC 29473 and L. anguillarum ATCC 1924 were kept in Nutrient Agar (Condalab, Madrid, Spain) and T. maritimum ATCC 43397 was kept in TMM agar (Condalab, Madrid, Spain), and were sub-cultured in the respective culture media before each assay. For S. pyogenes ATCC 19615, CAMHB was supplemented with 3.75% lysed horse blood (LBH—Oxoid, Basingstoke, England), whereas for C. jejuni it was supplemented with 2.5% LHB. Colony-forming unit counts of the inoculum were conducted to determine the initial inoculum size (which should be approximately 5×10^5 CFU/mL). Sterility and growth controls were included in each assay. The 96-well U-shaped untreated polystyrene microtiter plates were incubated for 20 h at 37 degrees C. (42 degrees C. for C. jejuni, in a microaerophilic atmosphere) and the minimal inhibitory concentration (MIC) was determined as the lowest concentration of compound that prevented visible growth. The minimal bactericidal concentration (MBC) was determined by spreading 100 μL of the content of the wells with no visible growth on MH plates. The MBC was determined as the lowest concentration of compound that killed 99.9% of the initial inoculum after overnight incubation at 37 degrees C. Two independent assays were performed for reference and MDR strains.
(§3) An initial screening of the antibacterial activity of the compounds was performed by the Kirby-Bauer disk diffusion method, as recommended by the Clinical and Laboratory Standards Institute (CLSI). Briefly, sterile 6 mm blank paper disks (Oxoid, Basingstoke, England) impregnated with 15 μg of each compound were placed on inoculated MH agar plates. A blank disk with dimethylsulfoxide (DMSO) was used as a negative control. MH inoculated plates were incubated for 18-20 h at 37 degrees C. At the end of incubation, the inhibition halos where measured. The MIC was used to determine the antibacterial activity of each compound, in accordance with the recommendations of the CLSI. Two-fold serial dilutions of the compounds were prepared in Mueller-Hinton Broth 2 (MHB2—Sigma-Aldrich, St. Louis, MO, USA) within the concentration range of 0.062-64 μg/mL. CTX ranging between 0.031-16 μg/mL was used as a control. Sterility and growth controls were included in each assay. Purity checks and colony counts of the inoculum suspensions were also performed in order to ensure that the final inoculum density closely approximates the intended number (5×10^5 CFU/mL). The MIC was determined as the lowest concentration of compound that inhibited growth of the bacteria. The MBC was assessed by spreading 10 μL of culture collected from wells showing no visible growth on MH agar plates. […]

[1] = tested on: Tenacibaculum maritimum ATCC 43397; test: Antibacterial disk diffusion; type: cell-based; conditions: Tenacibaculum maritimum ATCC 43397, footnote *
Source text: as §1, §2, §3

E. faecalis B3/101 (VRE) = test: Antibacterial MIC/MBC (broth microdilution); type: cell-based, Enterococcus faecalis; conditions: for antibacterial activity (in words): E. faecalis B3/101; for MBC / MIC: Enterococcus faecalis, E. faecalis B3/101 (VRE); for MBC: read-out: MBC; for MIC: read-out: MIC
Source text: as §1, §2, §3

[2] = tested on: Enterococcuss faecalis ATCC 29212; test: Antibacterial MIC/MBC (broth microdilution); type: cell-based, Enterococcus faecalis; conditions: for antibacterial activity (in words): E. faecalis ATCC 29212; for MBC / MIC: Enterococcus faecalis, ATCC29212, Enterococcuss faecalis ATCC 29212; for MBC: read-out: MBC; for MIC: read-out: MIC
Source text: as §1, §2, §3

[3] = tested on: Gram-negative and Gram-positive bacteria; test: Antibacterial activity, whole strain panel; type: cell-based; conditions: for spectrum of antibacterial activity (in words): all bacterial strains tested
Source text: as §1, §2, §3

| SMILES | MBC (E. coli SA/2 (ESBL)) | MIC (E. coli SA/2 (ESBL)) | MBC (P. aeruginosa 33b (PDR)) | MIC (P. aeruginosa 33b (PDR)) | Inhibition zone diameter (disk diffusion) [1] | antibacterial activity (in words) (E. faecalis B3/101 (VRE)) | MBC (E. faecalis B3/101 (VRE)) | MIC (E. faecalis B3/101 (VRE)) | antibacterial activity (in words) [2] | MBC [2] | MIC [2] | activity against Gram-negative bacteria (in words) [3] | spectrum of antibacterial activity (in words) [3] |
| --- | --- | --- | --- | --- | --- | --- | --- | --- | --- | --- | --- | --- | --- |
| C[C@H](CCC(=O)N1CCNCC1)[C@H]1CC[C@H]2[C@@H]3CC[C@@H]4C[C@H](O)CC[C@]4(C)[C@H]3C[C@H](O)[C@]12C [Compound 9, (R)-4-((3R,5R,8R,9S,10S,12S,13R,14S,17R)-3,12-dihydroxy-10,13-dimethylhexadecahydro-1H-cyclopenta[a]phenanthren-17-yl)-1-(piperazin-1-yl) pentan-1-one] | > 64 µg/mL | > 64 µg/mL | > 64 µg/mL | > 64 µg/mL | 9 mm | displayed the same effect | > 64 µg/mL | 32 µg/mL (≈ 69.5 µM) | exhibited antimicrobial activity | 64 µg/mL (≈ 139 µM) | 64 µg/mL (≈ 139 µM) | exhibited activities | broad spectrum of activity |
| C[C@H](CCC(=O)N1CCN(C(=O)CC[C@H](C)[C@@H]2CC[C@@H]3[C@H]4CC[C@H]5C[C@@H](O)CC[C@@]5(C)[C@@H]4C[C@@H](O)[C@]32C)CC1)[C@H]1CC[C@H]2[C@@H]3CC[C@@H]4C[C@H](O)CC[C@]4(C)[C@H]3C[C@H](O)[C@]12C [Compound 4, (R)-4-((3R,5R,8R,9S,10S,12S,13R,14S,17R)-3,12-dihydroxy-10,13-dimethylhexadecahydro-1H-cyclopenta[a]phenanthren-17-yl)-1-(4-((S)-4-((3S,5S,8S,9R,10R,12R,13S,14R,17S)-3,12-dihydroxy-10,13-dimethylhexadecahydro-1H-cyclopenta[a]phenanthren-17-yl)pentanoyl)piperazin-1-yl) pentan-1-one] | > 64 µg/mL | > 64 µg/mL | > 64 µg/mL | > 64 µg/mL | 10 mm | displayed the same effect | > 64 µg/mL | 64 µg/mL (≈ 76.6 µM) | exhibited antimicrobial activity | 64 µg/mL (≈ 76.6 µM) | 64 µg/mL (≈ 76.6 µM) | exhibited activities | active in eight of the tested strains |
| CCN(CC)CCNC(=O)CC[C@@H](C)[C@H]1CC[C@H]2[C@@H]3CC[C@@H]4C[C@H](O)CC[C@]4(C)[C@H]3C[C@H](O)[C@]12C [Compound 6, (R)—N-(2-(diethylamino)ethyl)-4-((3R,5R,8R,9S,10S,12S,13R,14S,17R)-3,12-dihydroxy-10,13-dimethylhexadecahydro-1H-cyclopenta[a]phenanthren-17-yl)pentanamide] | > 64 µg/mL | > 64 µg/mL | > 64 µg/mL | > 64 µg/mL | 10 mm | – | > 64 µg/mL | > 64 µg/mL | exhibited antimicrobial activity | 64 µg/mL (≈ 130 µM) | 64 µg/mL (≈ 130 µM) | exhibited activities | – |
| C[C@H](CCC(=O)NCCNc1ccccc1)[C@H]1CC[C@H]2[C@@H]3CC[C@@H]4C[C@H](O)CC[C@]4(C)[C@H]3C[C@H](O)[C@]12C [Compound 8, (R)-4-((3R,5R,8R,9S,10S,12S,13R,14S,17R)-3,12-dihydroxy-10,13-dimethylhexadecahydro-1H-cyclopenta[a]phenanthren-17-yl)-N-(2-(phenylamino)ethyl)pentanamide] | > 64 µg/mL | > 64 µg/mL | > 64 µg/mL | > 64 µg/mL | 12 mm | – | > 64 µg/mL | > 64 µg/mL | – | > 64 µg/mL | > 64 µg/mL | – | – |
| C[C@H](CCC(=O)N1CCOCC1)[C@H]1CC[C@H]2[C@@H]3CC[C@@H]4C[C@H](O)CC[C@]4(C)[C@H]3C[C@H](O)[C@]12C [Compound 3, (R)-4-((3R,5R,8R,9S,10S,12S,13R,14S,17R)-3,12-dihydroxy-10,13-dimethylhexadecahydro-1H-cyclopenta[a]phenanthren-17-yl)-1-morpholinopentan-1-one] | > 64 µg/mL | > 64 µg/mL | > 64 µg/mL | > 64 µg/mL | 10 mm | – | > 64 µg/mL | > 64 µg/mL | – | > 64 µg/mL | > 64 µg/mL | – | – |
| C[C@H](CCC(=O)N1CCCCC1)[C@H]1CC[C@H]2[C@@H]3CC[C@@H]4C[C@H](O)CC[C@]4(C)[C@H]3C[C@H](O)[C@]12C [Compound 2, (R)-4-((3R,5R,8R,9S,10S,12S,13R,14S,17R)-3,12-dihydroxy-10,13-dimethylhexadecahydro-1H-cyclopenta[a]phenanthren-17-yl)-1-(piperidin-1-yl) pentan-1-one] | > 64 µg/mL | > 64 µg/mL | > 64 µg/mL | > 64 µg/mL | 18 mm | – | > 64 µg/mL | > 64 µg/mL | exhibited antimicrobial activity | > 64 µg/mL | 32 µg/mL (≈ 69.6 µM) | – | – |
| C[C@H](CCC(=O)N1CCN(C(=O)OC(C)(C)C)CC1)[C@H]1CC[C@H]2[C@@H]3CC[C@@H]4C[C@H](O)CC[C@]4(C)[C@H]3C[C@H](O)[C@]12C [Compound 5, tert-butyl 4-((R)-4-((3R,5R,8R,9S,10S,12S,13R,14S,17R)-3,12-dihydroxy-10,13-dimethylhexadecahydro-1H-cyclopenta[a]phenanthren-17-yl)pentanoyl)piperazine-1-carboxylate] | > 64 µg/mL | > 64 µg/mL | > 64 µg/mL | > 64 µg/mL | 10 mm | – | > 64 µg/mL | > 64 µg/mL | – | > 64 µg/mL | > 64 µg/mL | – | – |
